# Results reported in patent publication US6518315B1, “Medicinal uses of phenylaikanols and derivatives” (The University of Sydney, priority 1997, dated 2003).
# Read-outs that look alike come from different tables or passages of the source.
# How the values were obtained:
# [1] = tested on: capsaicin-sensitive DRG neuronal cells; assay: [Ca^2+]i transients in DRG neuronal cells in culture; assay type: cell-based, rat
# Excerpt: Effect of Gingerol Analogues Towards Rat Dorsal Root Ganglia
# Capsaicin, the pungent component in peppers of the Capsicum genus, family Solanaceae, has the ability to excite a subset of sensory neurons, which include polymodal nociceptors and warm thermoceptors (Fitzgerald, 1983) by opening non-selective cation channels that are permeable to Na^+, K^+, and Ca^2+ (Bevan and Szolcsanyi, 1990). It has been shown that capsaicin evoked a concentration-dependent rise in [Ca^2+]i in cultured dorsal root ganglion neurons. The duration of the elevation of [Ca^2+]i depended on the concentration of capsaicin (Choleswinski, et al., 1993). In this investigation peak [Ca^2+]i transient measurements are used as a model for testing gingerol analogues.
# DRG from neonatal (3-5 days old) rat or adult Sprague-Dawley rats were incubated in Hanks CMF saline with 0.05% collagenase and 0.25% trypsin for 25 min at 37° C. Individual cells were obtained by trituration with fire polished Pasteur pipettes of diminishing diameters. Neurones were isolated from the cell suspension in 30% Percoll and then plated on collagen coated coverslips or in 24-well plates, then cultured in neurobasal medium with B27 supplement, 50 ng/ml 2.5 S nerve growth factor, 2 mM 1-glutamine and 100 U/ml penicillin/streptomycin. Cultures were maintained at 37° C. with 5% CO2. 30% Percoll increases the percentage of capsaicin-sensitive DRG neurones up to 70%. For peak [Ca^2+]i transients measurements, cells on coverslips were incubated with 5 μM Fura-2 AM for 30 min at 37° C. The coverslips were then mounted on a chamber attached to a fast sample application perfusion system which allows changing solutions in the second range. Recordings were made on the stage of a Nikon Diaphot inverted microscope fitted with a Nikon 40×Fluo (NA 0.85) DL Ph3 or 40×Fluo (NA 1.3) oil objective. [Ca^2+]i was calculated from dual excitation wavelength (340/380 nm) fluorescence measurements following an intracellular calibration procedure by the Grynkiewicz equation, using MCID M2/M4 v.3.0 (Imaging Res. Inc.) software. Cells were continuously perfused with a solution consisting of 140 mM NaCl, 2 mM CaCl2, 5 mM KCl, 20 mM HEPES, 10 mM glucose, pH 7.4. To study KCl evoked depolarisation, 50 mM NaCl was replaced by equimolar KCl. Cytoplasmic localisation of Fura-2 was tested with the Mn^2+ quenching technique (Dedov and Roufogalis, 1998). All experiments were performed at room temperature (20-23° C.).
# Typical changes in [Ca^2+]i upon depolarisation were evoked by 50 mM KCl and by application of 1 μM capsaicin; both were applied for 30 sec. Capsaicin-evoked peak [Ca^2+]i transients are characterised by a fast rise and long-steady state [Ca^2+]i clearance from the cytoplasm. In capsaicin-sensitive cells the half-time of cytoplasmic Ca^2+ clearance was proportional to the amplitudes of peak [Ca^2+]i transients.
# To examine the effect of gingerol derivatives, one or several compounds in succession at a concentration of 10 μM were applied for 1 min to the DRG neuronal cells followed by washing out for 4 min with physiological solution. To the capsaicin-sensitive cells, 10 μM capsaicin and 50 mM KCl were applied, respectively, to confirm the viability of the cells. In addition, morphological appearances of the cells were also examined at the end of experiment. […]
# guinea pig atria = assay: Organ bath assay, isolated guinea pig atria (rate and force of contraction)
# Method: Male guinea pigs, 3-4 weeks old, were killed by rapid cervical dislocation without induced anaesthesia. Then, the guinea pigs were dissected to isolate the atria which were immediately mounted vertically in an organ bath containing Krebs-Henseleit solution oxygenated with carbogen.
# One gram tension was applied to the atria and the base line continuously adjusted until it was stable for 20 mins. The rate and force of contraction were recorded using Mac Lab equipment.
# Test substances in DMSO were assayed to a maximum concentration of 50 μM at a final concentration of 2.5% of DMSO.
# left atrium guinea pig = assay: Cardiovascular and neuro-effector junction activities: left atrium, guinea pig
# Method: In later studies positive inotropic activity was observed as a 50% increase on driven guinea pig left atria at 10 μM.
# No effect was observed on nerve stimulation in atria.
# (§1) Therefore, further investigation of the physicochemical properties as well as mechanism(s) of action of these substances, including gingerols, is required in relation to cardiotonicity. The mode of action of gingerols as cardiotonic agents has been […] and it was proposed that they act by direct stimulation of the cardiac SR Ca^2+-ATPase. This may load extra calcium into the intracellular stores in the sarcoplasmic reticulum allowing more calcium to be released on stimulation of the heart resulting in increased cardiac contractility. […] The cardiotonic action of 1-(4-hydroxy-3-methoxyphenyl)dodecan-3-ol [3.93] was confirmed from independent studies, carried out at our request as part of our agreement with Johnson & Johnson Research Ltd (J&J), by Prof. James Angus from the University of Melbourne. […] A tachycardial effect of the substance on guinea pig atria was, however, observed at significant rate, 50-60% of isoprenaline Emax and the response was not α- or β-adrenoceptor mediated.
# (§2) Cardiovascular and Neuro-effector Junction Activities of Gingerol Analogues
# [2] = tested on: rabbit platelet-rich plasma; assay: Antiplatelet aggregation screen with arachidonic acid as substrate; assay type: cell-based
# right atrium guinea pig = assay: Cardiovascular and neuro-effector junction activities: right atrium, guinea pig; conditions: 10^−7-3 × 10^−5 M; not blocked by praz., prop.
# Excerpt: as §1, §2
# rat mesenteric artery = assay: Vasodilation on rat mesenteric artery
# Excerpt: The proposed mechanism of neuropeptide release by 1-(4-hydroxy-3-methoxyphenyl)dodecan-3-ol, similar to that of capsaicin, was supported by studies in blood vessels. […] This contrasts with capsaicin which has similar activity in Guinea pig atria (force and rate) and relaxing rat mesenteric artery.
# right atrium rat = assay: Cardiovascular and neuro-effector junction activities: right atrium, rat; conditions: 3 × 10^−7-3 × 10^−6 M, with propranolol present
# Excerpt: as §1, §2
# [3] = tested on: brine shrimp (Artemia salina Leach); assay: Brine shrimp assay; assay type: in vivo; conditions: for LC50: 24 hours, 2% DMSO
# Excerpt: Toxicity—Brine Shrimp Assay
# The brine shrimp assay procedure determines LC50 values of active compounds. Activities of a broad range of known active compounds are manifested as toxicity to brine shrimp (Artemia salina Leach). There are many applications of the assay including analysis of toxic substances, anaesthetics, morphine-like substances and cocarcinogenicity of phorbol esters.
# DMSO (dimethyl sulfoxide) was the solvent of choice because of its good solubilising properties and also because the substances used in the ATPase inhibition assays were already prepared with DMSO.
# The method for testing solvent toxicity used was basically that reported by J L McLaughlin in Methods of Plant Biochemistry (1991), vol. 6 (K Hostettman, ed.), Academic Press, London, 1-32. DMSO solutions of the substances to be tested were added directly to the vials containing the brine shrimp. As the concentration of DMSO is that we wished to use was higher than the recommended 1% v/v testing of the toxicity of the DMSO was therefore necessary. The concentrations of DMSO tested on the shrimp, along with the results from the assay which was done in duplicate are listed below.
# Brine shrimp toxicity was assayed, except for some minor modifications, according to the method of McLaughlin et al as reported in Brine Shrimp: A convenient bioassay for active plant constituents, B N Meyer, N R Ferrigni, J E Putnam, L B Jacobsen, D E Nichols and J L McLaughlin in Planta Medica (1982), 45, 31-34 and Crown gall tumours on potato discs and brine shrimp lethality: Two simple bioassays for higher plant screening and fractionation. J L McLaughlin. Methods of Plant Biochemistry (1991), vol. 6 (K Hostettman, ed.), Academic Press, London, 1-32. Ten shrimp were transferred to each of the vials and the volume adjusted to 4.9 mL. Each dose was performed in triplicate, including the control. In quick succession, the appropriate volume of additional DMSO for each dose, required to achieve a final concentration of 2%, was added before the appropriate volume of test solution. The vials were gently mixed and the time noted. After 24 hours, the number of survivors were counted and % mortality was determined. The test compounds were assayed at concentrations of 100 μM, 25 μM, 5 μM, 1 μM and 0.2 μM (and where appropriate concentrations of 0.04 μM and 0.008 μM).
# The brine shrimp were able to survive without food in the vials over the 24 hour period and were therefore not fed.
# The dose-response curves were constructed using the Sigmaplot computer program and the LC50 value was calculated from the intersection point of the curve and the 50% mortality line. The LC50 values were expressed in both μM and μg/mL.
# For substances with low toxicity, the greater sign “>” indicated the highest concentration at which the assay was carried out as precipitation of the substances occurred above that concentration.
# [4] = tested on: brine shrimp (Artemia salina Leach); conditions: in vivo; cited from earlier work
# diaphragm rat = assay: Cardiovascular and neuro-effector junction activities: diaphragm, rat; conditions: 10^−5 M
# Excerpt: as §1, §2
# cardiac Purkinje fibres = assay: Cardiac electrophysiology on Purkinje fibres; parameters: species or system dog; conditions: up to 10 μM
# Method: Cardiac Electrophysiological Activities of Gingerol and its Analogue
# The basic cardiac electrophysiological properties were assessed using cardiac Purkinje fibres obtained from adult mongrel dogs.
# Electrophysiology was carried out on dog heart purkinje fibre to test for potential arrhythmia. […] At high concentration (50 μM), however, [8]-gingerol reduced approximate 80% and 50% of action potential duration at 50% and 90% repolarisations respectively. Whereas the analogue reduced 75% and 30% respectively.
# vas deferens rat = assay: Cardiovascular and neuro-effector junction activities: vas deferens, rat; conditions: 10^−4 M
# Excerpt: as §1, §2
# left atrium rat = assay: Cardiovascular and neuro-effector junction activities: left atrium, rat; conditions: 10^−7-3 × 10^−5 M
# Excerpt: as §1, §2
structure (smiles),measurement,setting,value
CCCCCCCCCC(O)CCc1ccc(O)c(OC)c1 (stereo not shown) [1-(4-hydroxy-3-methoxyphenyl)dodecan-3-ol],evoked [Ca^2+]i transients in Ca^2+-free medium or with ruthenium red,[1]; Ca^2+-free medium or ruthenium red (1 μM),abolished or greatly diminished
same,potency of one enantiomer relative to the other in increasing force of contraction in guinea pig atria,guinea pig atria,100 fold
same,"FORCE OF CONTRACT^n, ↑ increase",guinea pig atria; @ 10 (μM),↑108% @ 10
same,arrhythmia on guinea pig driven left atria,left atrium guinea pig; 1 μM,followed by arrhythmia
same,"inotropic effect, % isopren. max., left atrium guinea pig",left atrium guinea pig; 10^−6-3 × 10^−5 M,˜20%
same,"inotropism, left atrium guinea pig",left atrium guinea pig; 10^−6-3 × 10^−5 M (not in rat),inotropic
same,platelet function via adenosine diphosphate or thromboxane A mechanisms,[2],did not affect
same,antiplatelet aggregation potency relative to indomethacin,"[2]; arachidonic acid as substrate, listed as 3-hydroxy-1-(4-hydroxy-3-methoxyphenyl)dodecane",three time more potent than the indomethacin reference compound
same,"effect on rate, right atrium guinea pig",right atrium guinea pig,tachycardia
same,potency (EC50) for relaxation of mesenteric artery relative to inotropic effect in guinea pig atrium,rat mesenteric artery,100 fold
same,relaxing vasopressin-contracted rat mesenteric small arteries,"rat mesenteric artery; 10^−8 to 10^−6 M, 200-300 μm diameter",very potent
same,"effect on rate, right atrium rat",right atrium rat,tachycardia
same,"toxicity towards brine shrimp, in words",[3]; in vivo,low toxicity
"COc1cc([C@@H]2c3cc4c(cc3[C@H](O)[C@H]3COC(=O)[C@H]23)OCO4)cc(OC)c1OC [podophyllotoxin, reference compound]",LC50 determined by Meyer et al. (1982),[4],(2.4) μg/ml
same,LC50,[3],1.6 mg/L
same,LC50,[3]; read-out: LC50,3.8 µM
CCCCCCCC(O)CC(=O)c1ccc(O)c(OC)c1 (stereo not shown) [3-hydroxy-1-(4-hydroxy-3-methoxyphenyl)decan-1-one],effect on diaphragm rat,diaphragm rat,no effect
same,Peak [Ca^2+]i (Average ± SD),"[1]; 10 μM applied for 1 min, 2 mM Ca^2+",0 nM
same,"FORCE OF CONTRACT^n (inotropic activity), result in words",guinea pig atria; assayed to a maximum of 50 μM,negative inotropic activity
same,"HEART RATE (chronotropic activity), result in words",guinea pig atria; assayed to a maximum of 50 μM,negative chronotropic activity
same,"effect on isoprenaline response, left atrium guinea pig",left atrium guinea pig; up to 30 μM,no effect
same,"effect on rate of depolarization, amplitude and duration of action potential (50% and 90%)",cardiac Purkinje fibres; listed as 3-hydroxy-1-(4-hydroxy-3-methoxyphenyl)decanone,only a small effect
same,"effect on rate of depolarization, amplitude and duration of action potential (50% and 90%)",cardiac Purkinje fibres; listed as 3.92,insignificant effect
same,effect on vas deferens rat,vas deferens rat,no effect
same,effect on left atrium rat,left atrium rat,no change
